The results in this text go back to publication PMC3466219 (PLoS ONE, 2012).

The structures appear in SMILES notation. “And” between values parts separate entries of the source, which are not always exact repeats. Equal entries are not always repeated. Where two headings read alike, the source gives them in different places.

What is called inhibition is how much of the control response was suppressed. By IC50 is commonly meant the concentration needed to halve the response being measured.

The subject of assay [1] is Tip60 levels in LNCaP cells. Type of assay: cell-based. As to conditions: increasing concentrations, 24 hours, Western blot. From the text: Representative blots are shown for duplicate experiments.
A general note: A western blot detects proteins with antibodies after separation by electrophoresis.

For assay [2], the system named is acetylated histone H4K16, H3K14 and H4K8 in LNCaP cells. The assay can be described thus: Western blotting of histone acetylation in LNCaP cells. As to conditions: Western blot.
The target of assay [3] is Tip60 (Homo sapiens, UniProt Q92993). The assay can be described thus: In vitro HAT assay, Tip60. Particulars: for inhibition at 100 µM: read-out: Tip60 % inhibition at 100 µM; for Tip60 inhibitory activity (in words): in vitro HAT assay.
For assay [4], the target named is GCN5 (Homo sapiens, UniProt Q92830). The assay can be described thus: In vitro HAT assay, GCN5. Format: biochemical. As to the method:
(§1) Assays were performed in quadruplicate.

Assay [5] has as its target T1, p300 (Homo sapiens, UniProt Q09472).
T1 sequence (Q09472 1287-1663 limits assumed): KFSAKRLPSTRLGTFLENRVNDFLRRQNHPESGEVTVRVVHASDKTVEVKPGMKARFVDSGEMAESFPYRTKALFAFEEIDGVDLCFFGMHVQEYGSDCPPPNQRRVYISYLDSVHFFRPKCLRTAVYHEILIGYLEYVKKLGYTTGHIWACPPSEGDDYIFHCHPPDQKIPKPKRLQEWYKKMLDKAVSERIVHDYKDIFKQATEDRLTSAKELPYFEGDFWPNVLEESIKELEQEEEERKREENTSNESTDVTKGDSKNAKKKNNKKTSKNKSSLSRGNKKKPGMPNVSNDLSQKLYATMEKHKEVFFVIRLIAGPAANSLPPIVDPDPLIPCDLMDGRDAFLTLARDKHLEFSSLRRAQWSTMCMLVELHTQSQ
Kind of assay: In vitro HAT assay, p300. Format: biochemical. Particulars: individual IC50 values. How it is done: as §1
(§2) Purification of recombinant HAT enzymes (GST-tagged)- Expression constructs, pGEX-p300 and pGEX-PCAF, obtained from Dr Andrew Bannister (Cambridge Cancer Centre, UK), were transformed into XA90 Escherichia coli cells. A single colony was selected and grown to an OD 0.5 IPTG (1 mM) induction was carried out for 4 hours then cell pellets were collected, lysed, and sonicated. Supernatants were then passed through glutathione Sepharose 4B (GE Healthcare) and purified protein was eluted with 50 mM Tris-HCl, 10 mM reduced glutathione, pH 8. Eluted fractions were tested for enzymatic activity by HAT assay.

Assay [6] concerns the target T2, PCAF (Homo sapiens, UniProt Q92831).
T2 construct: GST; made in house; host or cells: XA90 Escherichia coli
Kind of assay: In vitro HAT assay, PCAF. Type of assay: biochemical. Particulars: individual IC50 values. As to the method:
as §1, §2

Tip60, sequence (Q92993 whole entry): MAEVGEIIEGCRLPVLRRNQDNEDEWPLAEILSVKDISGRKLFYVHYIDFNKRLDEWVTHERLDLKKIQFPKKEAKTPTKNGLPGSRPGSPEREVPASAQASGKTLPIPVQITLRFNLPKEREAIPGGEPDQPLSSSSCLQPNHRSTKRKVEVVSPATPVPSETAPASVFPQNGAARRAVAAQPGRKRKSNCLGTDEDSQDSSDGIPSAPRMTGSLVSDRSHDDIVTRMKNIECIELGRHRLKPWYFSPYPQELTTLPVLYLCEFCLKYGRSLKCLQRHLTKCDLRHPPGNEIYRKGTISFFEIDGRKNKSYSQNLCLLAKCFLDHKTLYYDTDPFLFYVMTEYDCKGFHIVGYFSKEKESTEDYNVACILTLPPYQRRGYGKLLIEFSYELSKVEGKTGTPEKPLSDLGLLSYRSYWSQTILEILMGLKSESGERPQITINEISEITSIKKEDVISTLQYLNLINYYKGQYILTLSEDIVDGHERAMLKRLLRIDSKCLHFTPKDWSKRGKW
T2 sequence (Q92831 whole entry, species assumed): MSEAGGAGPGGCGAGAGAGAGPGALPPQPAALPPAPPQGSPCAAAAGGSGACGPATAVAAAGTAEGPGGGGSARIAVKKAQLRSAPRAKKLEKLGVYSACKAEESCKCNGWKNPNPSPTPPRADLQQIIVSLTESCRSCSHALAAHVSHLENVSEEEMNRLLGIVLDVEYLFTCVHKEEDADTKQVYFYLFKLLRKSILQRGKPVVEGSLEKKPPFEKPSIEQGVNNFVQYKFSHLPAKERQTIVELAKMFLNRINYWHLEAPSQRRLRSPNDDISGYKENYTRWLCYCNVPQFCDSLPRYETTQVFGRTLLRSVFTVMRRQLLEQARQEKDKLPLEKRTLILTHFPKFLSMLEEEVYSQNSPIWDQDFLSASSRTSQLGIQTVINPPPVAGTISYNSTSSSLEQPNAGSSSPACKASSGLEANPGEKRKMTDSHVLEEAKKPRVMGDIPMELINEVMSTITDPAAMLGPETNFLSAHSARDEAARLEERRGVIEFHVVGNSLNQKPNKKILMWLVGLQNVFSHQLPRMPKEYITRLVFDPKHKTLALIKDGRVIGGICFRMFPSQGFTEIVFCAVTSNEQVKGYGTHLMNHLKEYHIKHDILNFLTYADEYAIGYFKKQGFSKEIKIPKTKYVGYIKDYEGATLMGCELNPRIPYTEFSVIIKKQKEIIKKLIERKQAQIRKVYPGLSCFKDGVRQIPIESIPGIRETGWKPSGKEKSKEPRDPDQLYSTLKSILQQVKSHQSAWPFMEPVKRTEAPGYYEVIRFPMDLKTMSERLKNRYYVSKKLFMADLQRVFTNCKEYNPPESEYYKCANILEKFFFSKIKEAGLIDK
GCN5, sequence (Q92830 whole entry, species assumed): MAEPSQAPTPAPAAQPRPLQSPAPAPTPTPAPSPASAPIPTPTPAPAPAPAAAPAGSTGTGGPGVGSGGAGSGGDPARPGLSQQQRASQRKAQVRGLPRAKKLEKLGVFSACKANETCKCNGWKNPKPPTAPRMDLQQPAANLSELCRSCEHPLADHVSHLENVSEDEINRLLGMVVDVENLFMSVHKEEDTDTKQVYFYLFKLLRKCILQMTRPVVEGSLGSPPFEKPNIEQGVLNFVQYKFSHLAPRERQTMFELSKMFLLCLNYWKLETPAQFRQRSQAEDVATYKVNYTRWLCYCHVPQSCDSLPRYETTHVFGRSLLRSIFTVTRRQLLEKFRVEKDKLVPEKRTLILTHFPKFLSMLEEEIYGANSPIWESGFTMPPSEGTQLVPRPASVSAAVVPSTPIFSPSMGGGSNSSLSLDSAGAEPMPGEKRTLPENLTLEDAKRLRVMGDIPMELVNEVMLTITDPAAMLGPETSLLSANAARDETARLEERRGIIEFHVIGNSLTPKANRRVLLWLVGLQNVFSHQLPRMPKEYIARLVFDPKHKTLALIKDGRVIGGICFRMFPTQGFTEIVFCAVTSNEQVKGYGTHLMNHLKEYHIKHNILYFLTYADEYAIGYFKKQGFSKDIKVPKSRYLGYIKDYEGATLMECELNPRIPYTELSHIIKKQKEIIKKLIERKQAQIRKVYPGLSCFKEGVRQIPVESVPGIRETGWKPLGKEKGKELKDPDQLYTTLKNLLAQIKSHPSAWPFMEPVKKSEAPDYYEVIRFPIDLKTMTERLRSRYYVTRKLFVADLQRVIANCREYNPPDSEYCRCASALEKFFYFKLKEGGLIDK

Consider `c1cc(CCc2ccncc2)ccn1` [1,2-bis(4-pyridyl)ethane], for which the Tip60 levels entry in assay [1] is “unaffected”. Further, the “levels of acetylated histone H4K16, H3K14 and H4K8” value in assay [2] (increasing concentrations for 2 hours, then TSA 2 µM for a further 4 hours) was “did not affect”. Regarding `c1ccc2sc(SSc3nc4ccccc4s3)nc2c1` [2,2′-Dithio(bis)benzothiazole], the inhibition at 100 µM in assay [3] is 25%. For the compound `c1ccc(SSc2ccccn2)nc1` [2,2′-Dithiodipyridine], the IC50 in assay [3] (Tip60 IC50, in vitro HAT assay, 3H acetyl-CoA, histones as substrates, individual IC50 values) was 62 µM and 87 µM.

`Cc1ccsc1Br` [2-Bromo-3-methylthiophene]: in assay [3], the IC50 was above 100 µM and the “Tip60 inhibitory activity (in words)” value was “inactive”. The compound `c1cc(SSc2ccncc2)ccn1` [4,4′-Dithiodipyridine] came in with an IC50 in assay [3] of 48 µM. Regarding `Cc1cnsc1Br` [Compound 1, 4-Methyl-5-bromoisothiazole], in assay [3], the “Tip60 inhibitory activity (in words)” value is “inactive” and the inhibition at 100 µM came to 14%.

Regarding `Cc1cnsc1SC#N` [Compound 4, 4-Methyl-5-thiocyanatoisothiazole], the inhibition at 100 µM in assay [3] was 46%. As to `Cc1cnsc1SSc1sncc1C` [Compound 5, 1,2-Bis(4-methylisothiazol-5-yl)disulfane], the IC50 was above 100 µM in assay [4]; 4 µM in assay [3]; 58 µM and 43 µM in assay [5]; 33 µM and 25 µM in assay [6]. Consider `N#CSc1ccns1` [Compound 6, 5-Thiocyanatoisothiazole], for which, in assay [3], the inhibition at 100 µM was found to be 27%. With `Cc1cnsc1` [Compound 11, 4-Methylisothiazole], the inhibition at 100 µM in assay [3] was determined as 22%.

As to `c1ccc(SSc2ccccc2)cc1` [Diphenyl disulphide], the inhibition at 100 µM in assay [3] stood at 4%. For `CC(/C=C/C(=O)NO)=C\[C@@H](C)C(=O)c1ccc(N(C)C)cc1` [TSA, trichostatin A], the “acetylation at H4K8, H4K16 and H3K14” value in assay [2] (TSA alone 2 µM, 6 hours) was “acetylation was increased”.
